Source: paper PMC5791972 (PLoS ONE, 2018)
Read-outs that look alike come from different tables or passages of the source.

Key:
α2C (h) = biological target: T1, α2C (h) (Homo sapiens, UniProt P18825); format: binding; details: 1.0E-06 M
T1 construct: host or cells: CHO cells
T1 sequence (P18825 1-462): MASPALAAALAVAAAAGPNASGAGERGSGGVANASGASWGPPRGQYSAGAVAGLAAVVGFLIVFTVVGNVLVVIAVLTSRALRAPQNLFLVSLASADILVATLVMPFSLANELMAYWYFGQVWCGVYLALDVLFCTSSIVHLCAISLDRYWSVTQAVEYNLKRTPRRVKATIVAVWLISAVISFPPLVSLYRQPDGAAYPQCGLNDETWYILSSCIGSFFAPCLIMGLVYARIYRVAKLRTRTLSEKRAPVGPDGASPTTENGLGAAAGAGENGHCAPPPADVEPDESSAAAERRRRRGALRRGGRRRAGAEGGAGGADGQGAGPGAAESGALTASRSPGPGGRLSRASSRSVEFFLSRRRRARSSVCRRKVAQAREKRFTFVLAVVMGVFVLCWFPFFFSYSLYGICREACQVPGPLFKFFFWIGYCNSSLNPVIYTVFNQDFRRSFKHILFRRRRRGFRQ

CCK2 (CCKB) (h) = CCK2 (CCKB) (h) (Homo sapiens, UniProt P32239); format: binding; details: 1.0E-06 M
H2 (h) = biological target: T2, H2 (h) (Homo sapiens, UniProt P25021); format: binding; details: 1.0E-06 M
T2 construct: host or cells: CHO cells

MC4 (h) = biological target: T3, MC4 (h) (Homo sapiens, UniProt P32245); format: binding; details: 1.0E-06 M
T3 construct: host or cells: CHO cells

[1] = tested on: sigma (non-selective) (h); format: binding, human; details: 1.0E-06 M
VPAC1 (VIP1) (h) = biological target: T4, VPAC1 (VIP1) (h) (Homo sapiens, UniProt P32241); format: binding; details: 1.0E-06 M
T4 construct: host or cells: CHO cells
T4 sequence (P32241 31-457): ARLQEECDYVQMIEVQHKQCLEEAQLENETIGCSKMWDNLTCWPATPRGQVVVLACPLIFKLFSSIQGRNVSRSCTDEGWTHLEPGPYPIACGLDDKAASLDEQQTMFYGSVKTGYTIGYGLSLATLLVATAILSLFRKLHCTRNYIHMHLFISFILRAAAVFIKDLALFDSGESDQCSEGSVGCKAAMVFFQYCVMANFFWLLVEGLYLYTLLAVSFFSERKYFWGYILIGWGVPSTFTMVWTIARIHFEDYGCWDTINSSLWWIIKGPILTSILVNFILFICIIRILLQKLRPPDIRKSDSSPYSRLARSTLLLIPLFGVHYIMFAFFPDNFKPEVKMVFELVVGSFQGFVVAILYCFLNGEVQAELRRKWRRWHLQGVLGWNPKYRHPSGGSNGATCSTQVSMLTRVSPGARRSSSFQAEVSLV

V2 (h) = biological target: T5, V2 (h) (Homo sapiens, UniProt P30518); format: binding; details: 1.0E-06 M
T5 construct: host or cells: CHO cells

[2] = biological target: Ca2+ channel (L, diltiazem site) (benzothiazepines) (Rattus norvegicus, UniProt P22002); format: binding
Ca2+ channel (N) = Ca2+ channel (N) (Rattus norvegicus, UniProt Q02294); experiment: biochemical; format: binding
caspase-3 (h) = biological target: T6, caspase-3 (h) (Homo sapiens, UniProt P42574); experiment: biochemical; details: 1.0E-06 M
T6 construct: Cerep (contract assay); host or cells: E. coli
T6 sequence (P42574 29-175 limits assumed): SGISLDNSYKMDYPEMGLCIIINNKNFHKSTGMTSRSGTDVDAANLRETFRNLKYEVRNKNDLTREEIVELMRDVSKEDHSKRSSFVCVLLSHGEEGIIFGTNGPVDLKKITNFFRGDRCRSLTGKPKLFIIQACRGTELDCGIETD
T6 sequence (P42574 176-277 limits assumed): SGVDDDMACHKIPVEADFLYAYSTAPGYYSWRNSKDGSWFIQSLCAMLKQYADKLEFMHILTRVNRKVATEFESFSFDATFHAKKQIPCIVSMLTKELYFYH

[3] = biological target: T7, phosphatase 1B (h) (PTP1B) (Homo sapiens, UniProt P18031); experiment: enzyme assay; format: biochemical; details: 1.0E-06 M
T7 construct: host or cells: E. coli
T7 sequence (P18031 1-435): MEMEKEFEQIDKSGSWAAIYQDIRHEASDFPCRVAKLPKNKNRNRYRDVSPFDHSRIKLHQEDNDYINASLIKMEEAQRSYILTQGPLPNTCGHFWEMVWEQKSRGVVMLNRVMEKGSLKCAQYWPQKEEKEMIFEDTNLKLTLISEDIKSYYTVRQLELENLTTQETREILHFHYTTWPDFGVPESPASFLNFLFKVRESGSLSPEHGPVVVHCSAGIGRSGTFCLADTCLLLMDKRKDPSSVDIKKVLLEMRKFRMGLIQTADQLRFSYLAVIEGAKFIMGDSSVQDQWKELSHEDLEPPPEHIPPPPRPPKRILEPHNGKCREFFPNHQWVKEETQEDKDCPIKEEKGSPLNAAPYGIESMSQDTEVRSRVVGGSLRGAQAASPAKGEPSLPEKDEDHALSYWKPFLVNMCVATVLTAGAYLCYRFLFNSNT

ATPase (Na+/K+) = experiment: enzyme assay; format: biochemical, porcine; details: 1.0E-06 M
TRPC6 = TRPC6 (Homo sapiens, UniProt Q9Y210); experiment: cell-based
5-HT6 (h) = 5-HT6 (h) (Homo sapiens, UniProt P50406); experiment: biochemical

Chain of CCK2 (CCKB) (h) (P32239 whole entry): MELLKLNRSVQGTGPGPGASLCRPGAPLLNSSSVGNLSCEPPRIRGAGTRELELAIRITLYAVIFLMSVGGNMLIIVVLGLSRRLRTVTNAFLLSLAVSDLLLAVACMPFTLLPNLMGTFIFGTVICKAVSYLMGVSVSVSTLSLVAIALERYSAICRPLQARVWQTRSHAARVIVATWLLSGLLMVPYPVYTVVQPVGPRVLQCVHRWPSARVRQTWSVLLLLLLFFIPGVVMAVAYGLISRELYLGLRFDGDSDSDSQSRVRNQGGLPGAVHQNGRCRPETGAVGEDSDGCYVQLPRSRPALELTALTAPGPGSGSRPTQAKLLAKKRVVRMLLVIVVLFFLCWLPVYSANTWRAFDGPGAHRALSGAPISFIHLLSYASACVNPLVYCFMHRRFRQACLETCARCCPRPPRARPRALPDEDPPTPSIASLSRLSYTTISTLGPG
T2 sequence (P25021 whole entry): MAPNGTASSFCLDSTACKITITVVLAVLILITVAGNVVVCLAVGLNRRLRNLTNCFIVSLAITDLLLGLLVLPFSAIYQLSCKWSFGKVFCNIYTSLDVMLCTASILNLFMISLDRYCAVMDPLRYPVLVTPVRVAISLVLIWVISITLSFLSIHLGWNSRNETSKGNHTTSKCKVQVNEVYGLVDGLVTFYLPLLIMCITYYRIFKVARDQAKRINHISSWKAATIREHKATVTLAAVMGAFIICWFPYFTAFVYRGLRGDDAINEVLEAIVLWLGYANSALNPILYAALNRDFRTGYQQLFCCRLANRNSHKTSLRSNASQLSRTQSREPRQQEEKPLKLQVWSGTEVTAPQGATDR
T3 sequence (P32245 whole entry): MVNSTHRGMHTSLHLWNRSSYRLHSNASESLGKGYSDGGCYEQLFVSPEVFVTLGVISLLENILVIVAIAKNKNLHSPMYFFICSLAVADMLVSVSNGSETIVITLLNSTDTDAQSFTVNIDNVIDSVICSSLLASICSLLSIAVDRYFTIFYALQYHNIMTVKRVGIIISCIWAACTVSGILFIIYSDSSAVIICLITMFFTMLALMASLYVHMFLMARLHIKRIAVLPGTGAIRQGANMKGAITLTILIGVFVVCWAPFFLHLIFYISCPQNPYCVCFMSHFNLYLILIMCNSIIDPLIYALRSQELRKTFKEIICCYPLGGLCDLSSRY
Chain of Ca2+ channel (N) (Q02294 whole entry): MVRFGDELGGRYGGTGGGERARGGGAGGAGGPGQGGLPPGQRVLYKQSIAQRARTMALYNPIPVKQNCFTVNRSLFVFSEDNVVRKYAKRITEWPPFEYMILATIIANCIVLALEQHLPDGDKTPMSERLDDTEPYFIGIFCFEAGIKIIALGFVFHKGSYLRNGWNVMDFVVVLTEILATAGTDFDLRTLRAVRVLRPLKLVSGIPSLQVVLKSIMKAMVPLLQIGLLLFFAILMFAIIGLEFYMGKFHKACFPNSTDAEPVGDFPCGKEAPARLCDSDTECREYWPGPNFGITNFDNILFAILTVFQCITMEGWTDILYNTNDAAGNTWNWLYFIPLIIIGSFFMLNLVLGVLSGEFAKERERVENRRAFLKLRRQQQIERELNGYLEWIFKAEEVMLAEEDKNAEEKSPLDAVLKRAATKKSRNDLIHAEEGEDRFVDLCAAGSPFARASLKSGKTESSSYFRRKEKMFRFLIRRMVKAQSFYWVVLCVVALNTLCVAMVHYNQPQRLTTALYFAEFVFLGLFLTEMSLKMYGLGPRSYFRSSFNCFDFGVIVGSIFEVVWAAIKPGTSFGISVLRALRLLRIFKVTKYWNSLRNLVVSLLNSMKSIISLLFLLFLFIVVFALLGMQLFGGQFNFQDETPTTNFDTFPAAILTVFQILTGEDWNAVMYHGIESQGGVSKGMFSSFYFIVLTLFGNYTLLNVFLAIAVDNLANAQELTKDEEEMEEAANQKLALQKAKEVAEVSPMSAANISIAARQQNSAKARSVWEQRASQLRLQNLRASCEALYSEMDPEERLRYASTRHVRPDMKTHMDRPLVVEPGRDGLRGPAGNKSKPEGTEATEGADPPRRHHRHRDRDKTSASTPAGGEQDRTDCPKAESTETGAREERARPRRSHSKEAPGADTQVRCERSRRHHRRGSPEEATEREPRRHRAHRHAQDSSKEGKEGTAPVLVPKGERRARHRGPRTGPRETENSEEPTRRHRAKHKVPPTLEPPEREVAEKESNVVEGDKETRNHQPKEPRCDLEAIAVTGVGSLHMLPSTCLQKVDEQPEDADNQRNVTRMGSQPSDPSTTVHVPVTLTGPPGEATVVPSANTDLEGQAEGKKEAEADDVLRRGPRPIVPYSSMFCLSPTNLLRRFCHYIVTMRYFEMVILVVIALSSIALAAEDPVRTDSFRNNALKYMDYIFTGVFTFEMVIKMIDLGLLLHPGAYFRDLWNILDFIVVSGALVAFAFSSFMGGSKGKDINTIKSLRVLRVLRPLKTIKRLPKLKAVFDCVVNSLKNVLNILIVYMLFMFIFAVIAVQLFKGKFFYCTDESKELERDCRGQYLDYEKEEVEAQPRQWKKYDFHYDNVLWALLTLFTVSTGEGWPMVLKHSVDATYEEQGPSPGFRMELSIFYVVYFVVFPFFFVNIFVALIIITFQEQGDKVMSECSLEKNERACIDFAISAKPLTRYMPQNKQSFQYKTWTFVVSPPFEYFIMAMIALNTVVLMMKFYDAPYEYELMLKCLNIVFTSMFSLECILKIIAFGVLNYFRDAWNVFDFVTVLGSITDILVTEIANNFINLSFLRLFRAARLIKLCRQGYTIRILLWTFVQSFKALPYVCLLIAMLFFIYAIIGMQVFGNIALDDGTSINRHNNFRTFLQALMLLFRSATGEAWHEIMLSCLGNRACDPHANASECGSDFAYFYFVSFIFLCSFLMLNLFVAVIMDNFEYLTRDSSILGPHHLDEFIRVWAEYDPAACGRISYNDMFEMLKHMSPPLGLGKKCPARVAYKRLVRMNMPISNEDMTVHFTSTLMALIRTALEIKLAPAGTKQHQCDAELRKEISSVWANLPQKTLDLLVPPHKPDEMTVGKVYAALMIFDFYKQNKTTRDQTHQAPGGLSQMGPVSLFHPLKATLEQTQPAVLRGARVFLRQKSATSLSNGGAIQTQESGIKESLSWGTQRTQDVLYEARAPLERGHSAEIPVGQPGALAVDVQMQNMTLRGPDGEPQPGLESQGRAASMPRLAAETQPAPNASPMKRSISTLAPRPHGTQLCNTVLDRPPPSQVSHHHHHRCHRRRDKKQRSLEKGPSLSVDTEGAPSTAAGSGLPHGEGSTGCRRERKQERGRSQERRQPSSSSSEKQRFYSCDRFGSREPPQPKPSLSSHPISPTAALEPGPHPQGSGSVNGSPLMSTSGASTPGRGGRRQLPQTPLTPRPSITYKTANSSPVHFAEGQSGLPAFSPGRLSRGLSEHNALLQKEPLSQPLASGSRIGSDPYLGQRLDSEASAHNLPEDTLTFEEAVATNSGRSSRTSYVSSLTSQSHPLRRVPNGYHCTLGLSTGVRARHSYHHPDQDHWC
Chain of Ca2+ channel (N) (P54290 25-944 partner limits assumed): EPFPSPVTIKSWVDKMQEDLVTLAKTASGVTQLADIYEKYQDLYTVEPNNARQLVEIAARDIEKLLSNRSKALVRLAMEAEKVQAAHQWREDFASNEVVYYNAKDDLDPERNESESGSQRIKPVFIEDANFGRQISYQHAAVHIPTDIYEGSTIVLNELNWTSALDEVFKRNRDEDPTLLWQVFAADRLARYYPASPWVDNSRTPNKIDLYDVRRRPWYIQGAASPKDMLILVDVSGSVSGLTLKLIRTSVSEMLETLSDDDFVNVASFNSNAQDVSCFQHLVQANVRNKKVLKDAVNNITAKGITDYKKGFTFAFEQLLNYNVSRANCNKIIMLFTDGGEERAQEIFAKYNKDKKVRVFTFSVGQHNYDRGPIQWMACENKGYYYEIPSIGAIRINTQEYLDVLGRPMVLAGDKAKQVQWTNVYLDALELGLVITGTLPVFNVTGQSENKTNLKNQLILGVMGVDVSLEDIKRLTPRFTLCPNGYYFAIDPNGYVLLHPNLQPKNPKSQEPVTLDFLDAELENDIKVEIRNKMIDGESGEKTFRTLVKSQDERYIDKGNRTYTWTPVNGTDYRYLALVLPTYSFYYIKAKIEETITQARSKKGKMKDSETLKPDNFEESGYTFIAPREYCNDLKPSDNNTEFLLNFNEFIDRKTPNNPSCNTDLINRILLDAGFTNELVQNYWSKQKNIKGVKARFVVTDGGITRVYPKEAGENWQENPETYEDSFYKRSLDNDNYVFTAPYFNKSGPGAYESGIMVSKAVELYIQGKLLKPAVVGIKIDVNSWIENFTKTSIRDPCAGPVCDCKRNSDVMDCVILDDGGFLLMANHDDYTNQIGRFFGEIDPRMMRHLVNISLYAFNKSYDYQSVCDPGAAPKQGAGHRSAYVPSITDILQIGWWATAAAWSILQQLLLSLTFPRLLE
Chain of Ca2+ channel (N) (P54290 945-1091 partner limits assumed): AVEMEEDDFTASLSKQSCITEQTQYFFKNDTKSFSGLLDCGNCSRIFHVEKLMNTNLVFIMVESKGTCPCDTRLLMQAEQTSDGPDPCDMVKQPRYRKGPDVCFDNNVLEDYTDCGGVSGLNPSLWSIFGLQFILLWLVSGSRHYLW
Chain of Ca2+ channel (N) (P54287 whole entry partner): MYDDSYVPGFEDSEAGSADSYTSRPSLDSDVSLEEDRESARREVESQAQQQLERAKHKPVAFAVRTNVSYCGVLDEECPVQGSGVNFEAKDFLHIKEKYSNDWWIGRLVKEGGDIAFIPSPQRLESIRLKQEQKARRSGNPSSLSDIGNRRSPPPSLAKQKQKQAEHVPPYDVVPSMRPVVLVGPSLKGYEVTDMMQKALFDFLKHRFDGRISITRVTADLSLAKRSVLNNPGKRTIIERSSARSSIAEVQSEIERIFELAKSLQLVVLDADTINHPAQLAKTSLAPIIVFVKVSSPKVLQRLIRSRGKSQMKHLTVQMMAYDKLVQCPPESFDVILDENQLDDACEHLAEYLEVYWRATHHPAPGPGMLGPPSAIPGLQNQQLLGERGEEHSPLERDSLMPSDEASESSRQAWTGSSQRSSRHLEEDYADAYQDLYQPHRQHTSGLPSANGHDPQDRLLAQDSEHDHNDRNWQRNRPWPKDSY

Cn1c(=O)n(CCCO)c(=O)c2c1nc(Oc1cccc(OC(F)(F)F)c1)n2Cc1ccc(Cl)cc1 [HC-608]
inhibition at 1 µM (α2C (h); read-out: % Inhibition 1st): -4.1%
inhibition at 1 µM (α2C (h); read-out: % Inhibition 2nd): -10.2%
inhibition at 1 µM (α2C (h); read-out: % Inhibition Mean): -7.1%
inhibition at 1 µM (CCK2 (CCKB) (h); read-out: % Inhibition 1st): -13.8%
inhibition at 1 µM (CCK2 (CCKB) (h); read-out: % Inhibition 2nd): -0.7%
inhibition at 1 µM (CCK2 (CCKB) (h); read-out: % Inhibition Mean): -7.2%
inhibition at 1 µM (H2 (h); read-out: % Inhibition 1st): 1.1%
inhibition at 1 µM (H2 (h); read-out: % Inhibition 2nd): 7.7%
inhibition at 1 µM (H2 (h); read-out: % Inhibition Mean): 4.4%
inhibition at 1 µM (MC4 (h); read-out: % Inhibition 1st): 2.9%
inhibition at 1 µM (MC4 (h); read-out: % Inhibition 2nd): -4.8%
inhibition at 1 µM (MC4 (h); read-out: % Inhibition Mean): -1%
% Inhibition 1st [1]: 28%
% Inhibition 2nd [1]: 30.6%
% Inhibition Mean [1]: 29.3%
inhibition at 1 µM (VPAC1 (VIP1) (h); read-out: % Inhibition 1st): -9%
inhibition at 1 µM (VPAC1 (VIP1) (h); read-out: % Inhibition 2nd): -8.4%
inhibition at 1 µM (VPAC1 (VIP1) (h); read-out: % Inhibition Mean): -8.7%
inhibition at 1 µM (V2 (h); read-out: % Inhibition 1st): 8.6%
inhibition at 1 µM (V2 (h); read-out: % Inhibition 2nd): 5.7%
inhibition at 1 µM (V2 (h); read-out: % Inhibition Mean): 7.1%
% Inhibition 1st [2]: -1.9%
% Inhibition 2nd [2]: 8.8%
% Inhibition Mean [2]: 3.4%
inhibition at 1 µM (Ca2+ channel (N); read-out: % Inhibition 1st): -5.9%
inhibition at 1 µM (Ca2+ channel (N); read-out: % Inhibition 2nd): -13.1%
inhibition at 1 µM (Ca2+ channel (N); read-out: % Inhibition Mean): -9.5%
inhibition at 1 µM (caspase-3 (h); read-out: % Inhibition 1st): 3.7%
inhibition at 1 µM (caspase-3 (h); read-out: % Inhibition 2nd): 2.3%
inhibition at 1 µM (caspase-3 (h); read-out: % Inhibition Mean): 3%
% Inhibition 1st [3]: -6.7%
% Inhibition 2nd [3]: -5.9%
% Inhibition Mean [3]: -6.3%
% Inhibition 1st (ATPase (Na+/K+)): 3.0%
% Inhibition 2nd (ATPase (Na+/K+)): -1.5%
% Inhibition Mean (ATPase (Na+/K+)): 0.8%
IC50 (TRPC6): > 1640 nM
inhibition at 1 µM (5-HT6 (h); read-out: % Inhibition 1st): -5.1%
inhibition at 1 µM (5-HT6 (h); read-out: % Inhibition 2nd): 7.3%
inhibition at 1 µM (5-HT6 (h); read-out: % Inhibition Mean): 1.1%
